Experiment: cn = amount concentration of the nth substance listed, in mol/dm3
Details: 298.15 K, 101 kPa, Liquid, Alternating current cell with electrodes

CCn1cc[n+](C)c1.[Br-] [1-ethyl-3-methylimidazolium bromide] + CC#N
Details | molar conductivity [S·m2/mol]
c1 = 0.000941 | 0.0155
c1 = 0.001725 | 0.0152
c1 = 0.002388 | 0.015
c1 = 0.002957 | 0.0149
c1 = 0.003994 | 0.0146
c1 = 0.0046 | 0.0145
c1 = 0.005175 | 0.0144
c1 = 0.005645 | 0.0143
c1 = 0.006038 | 0.0143
c1 = 0.006369 | 0.0142
c1 = 0.006654 | 0.0142
c1 = 0.007011 | 0.0141
c1 = 0.007656 | 0.014
c1 = 0.007998 | 0.0139
c1 = 0.008433 | 0.0139

CCn1cc[n+](C)c1.[Br-] [1-ethyl-3-methylimidazolium bromide] + C[S+](C)[O-]
Details | molar conductivity [S·m2/mol]
c1 = 0.002105 | 0.00246
c1 = 0.003858 | 0.00225
c1 = 0.005342 | 0.00209
c1 = 0.006614 | 0.00198
c1 = 0.007717 | 0.0019
c1 = 0.008681 | 0.00182
c1 = 0.009532 | 0.00177
c1 = 0.01097 | 0.00166
c1 = 0.01213 | 0.00158
c1 = 0.0135 | 0.0015
c1 = 0.01458 | 0.00144
c1 = 0.01614 | 0.00136
c1 = 0.01721 | 0.0013
c1 = 0.01812 | 0.00126
c1 = 0.01902 | 0.00122

CCn1cc[n+](C)c1.[Br-] [1-ethyl-3-methylimidazolium bromide] + CC(=O)N(C)C
Details | molar conductivity [S·m2/mol]
c1 = 0.000995 | 0.00429
c1 = 0.001858 | 0.004
c1 = 0.002527 | 0.00377
c1 = 0.003129 | 0.00364
c1 = 0.003697 | 0.00354
c1 = 0.004106 | 0.00348
c1 = 0.004509 | 0.00335
c1 = 0.005187 | 0.0032
c1 = 0.005736 | 0.00309
c1 = 0.005973 | 0.00305
c1 = 0.006388 | 0.003
c1 = 0.0073 | 0.00283
c1 = 0.007821 | 0.00273
c1 = 0.008279 | 0.0027
c1 = 0.008995 | 0.00254

CCn1cc[n+](C)c1.[Br-] [1-ethyl-3-methylimidazolium bromide] + CN(C)C=O
Details | molar conductivity [S·m2/mol]
c1 = 0.001828 | 0.00732
c1 = 0.002531 | 0.0071
c1 = 0.003133 | 0.0069
c1 = 0.003655 | 0.00675
c1 = 0.004225 | 0.00667
c1 = 0.004874 | 0.00652
c1 = 0.005483 | 0.00643
c1 = 0.005981 | 0.0063
c1 = 0.006397 | 0.00622
c1 = 0.006905 | 0.00616
c1 = 0.007429 | 0.0061
c1 = 0.007833 | 0.00604
c1 = 0.008291 | 0.00593
c1 = 0.008681 | 0.00587
c1 = 0.009008 | 0.00584

CCn1cc[n+](C)c1.[Br-] [1-ethyl-3-methylimidazolium bromide] + CO
Details | molar conductivity [S·m2/mol]
c1 = 0.001828 | 0.00814
c1 = 0.002264 | 0.00804
c1 = 0.002683 | 0.00795
c1 = 0.003262 | 0.00784
c1 = 0.003528 | 0.00779
c1 = 0.004007 | 0.00771
c1 = 0.004303 | 0.00765
c1 = 0.004622 | 0.0076
c1 = 0.004858 | 0.00757
c1 = 0.005093 | 0.00753
c1 = 0.005282 | 0.0075
c1 = 0.005565 | 0.00746
c1 = 0.005822 | 0.00743
c1 = 0.006122 | 0.00739
c1 = 0.006338 | 0.00736

Reference: the NIST ThermoML archive (doi:10.1016/j.tca.2013.02.022)
